Biological target: T1, human TPO (Homo sapiens, UniProt P07202)
T1 construct: expressed in transfected cells; host or cells: HEK293T (HEK-TPOA7 clone), whole-cell lysate in 0.1% sodium deoxycholate
T1 sequence (P07202 19-933): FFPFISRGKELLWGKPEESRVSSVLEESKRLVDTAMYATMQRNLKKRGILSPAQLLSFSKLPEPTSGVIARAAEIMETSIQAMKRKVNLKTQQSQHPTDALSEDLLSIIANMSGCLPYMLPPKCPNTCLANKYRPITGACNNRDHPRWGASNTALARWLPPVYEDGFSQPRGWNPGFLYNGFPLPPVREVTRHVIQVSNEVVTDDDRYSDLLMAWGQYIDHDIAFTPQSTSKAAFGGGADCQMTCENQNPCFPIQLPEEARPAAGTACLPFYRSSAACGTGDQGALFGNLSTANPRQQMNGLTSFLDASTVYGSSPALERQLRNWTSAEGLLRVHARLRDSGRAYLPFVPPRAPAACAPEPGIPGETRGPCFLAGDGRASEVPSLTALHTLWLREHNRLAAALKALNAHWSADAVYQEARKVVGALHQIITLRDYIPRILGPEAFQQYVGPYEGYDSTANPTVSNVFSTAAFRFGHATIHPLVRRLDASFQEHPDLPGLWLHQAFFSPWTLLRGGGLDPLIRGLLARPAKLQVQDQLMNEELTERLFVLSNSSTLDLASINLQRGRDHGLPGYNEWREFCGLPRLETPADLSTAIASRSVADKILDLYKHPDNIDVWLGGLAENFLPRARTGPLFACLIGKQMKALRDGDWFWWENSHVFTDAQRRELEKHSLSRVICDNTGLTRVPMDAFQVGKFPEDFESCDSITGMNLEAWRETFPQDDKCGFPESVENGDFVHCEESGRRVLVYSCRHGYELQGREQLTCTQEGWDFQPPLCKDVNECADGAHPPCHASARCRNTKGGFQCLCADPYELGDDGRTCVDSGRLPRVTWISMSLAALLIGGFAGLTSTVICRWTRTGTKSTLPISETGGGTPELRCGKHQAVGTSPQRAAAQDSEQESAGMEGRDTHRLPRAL
Experiment: standard Amplex UltraRed (AUR) TPO assay, HEK-TPOA7 cell lysate, fluorescence
Type: biochemical
Details: no modification, read-out: IC50 (± standard deviation)
Protocol: Briefly, the cells were washed with phosphate-buffered saline (PBS), scraped, resuspended in PBS, and centrifuged for 5 min at 150 rcf. […] Lysed cells were centrifuged for 5 min at 12,000 rcf to extract the soluble protein fraction. The cell lysates were kept at − 80 °C for longer-term storage.

Oc1cc(Cl)ccc1Oc1ccc(Cl)cc1Cl [TCS, Triclosan]
IC50: 199 µM

From publication PMC13043538, “In vitro thyroperoxidase inhibition assessment by LC-ICP-MS-based L-tyrosine iodination assay: comparison with Amplex Ultrared assay and its modifications” (Archives of Toxicology, 2026)
